Data published in BindingDB's records for patent US11453697 (Merck Sharp & Dohme, 2022).
pEC50: −log10 of the molar value.

Biological target: Stimulator of interferon genes protein [1-379,R71H,G230A,H232R,R293Q] (Homo sapiens, UniProt Q86WV6, G230A/H232R/R293Q/R71H)
Experiment: 3H-cGAMP Filtration Binding Assay (HAQ STING)
Experimental: Compound and membrane then preincubated for 60 min at RT to allow compound binding to equilibrate. Following equilibration, 8 nM of [3H] c-GAMP ligand was prepared by diluting into assay buffer, and 50 uL of this working stock was then manually added to each well of the assay plate. […] The filter plates were then dried at 55° C. for 30 min using a pressurized VWR oven before 30 uL of Ultima GoldF scintillate was added to each well. Tritium levels for each reaction well were then measured using a PerkinElmer TopCount plate reader.

Chain of Stimulator of interferon genes protein [1-379,R71H,G230A,H232R,R293Q] (Q86WV6 whole entry R71H/G230A/H232R/R293Q, looked up): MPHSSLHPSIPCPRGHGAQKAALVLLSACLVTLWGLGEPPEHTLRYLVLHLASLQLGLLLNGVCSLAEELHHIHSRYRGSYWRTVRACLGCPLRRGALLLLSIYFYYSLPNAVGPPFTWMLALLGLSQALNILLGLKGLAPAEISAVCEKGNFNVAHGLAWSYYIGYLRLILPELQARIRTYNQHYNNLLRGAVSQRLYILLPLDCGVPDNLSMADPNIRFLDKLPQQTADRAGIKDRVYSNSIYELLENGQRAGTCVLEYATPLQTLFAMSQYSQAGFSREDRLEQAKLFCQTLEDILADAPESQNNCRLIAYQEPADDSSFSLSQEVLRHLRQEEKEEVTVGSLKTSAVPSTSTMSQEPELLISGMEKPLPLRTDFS

pEC50	SMILES
7.21	Nc1nc2c(ncn2[C@@H]2O[C@@H]3COP(=O)(S)OC4[C@@H](COP(=O)(S)O[C@H]2C3)O[C@@H](n2nnc3c(N)ncnc32)[C@H]4F)c(=O)[nH]1 (some centres not stated) [US11453697, Example 133]
8.98	Nc1nc2c(ncn2[C@@H]2O[C@@H]3COP(=O)(S)O[C@H]4[C@H](F)[C@H](n5cnc6c(N)ncnc65)O[C@@H]4COP(=O)(O)O[C@@H]2[C@@H]3F)c(=O)[nH]1 (some centres not stated) [US11453697, Example 143]
